Where two headings read alike, the source gives them in different places.
Assays:
Format in all cases: biochemical
[1] = molecular target: T1, GCN2 (Homo sapiens, UniProt Q9P2K8); test: In vitro phosphorylation assay: GCN2 activation (auto-phosphorylation); settings: with IN
T1 construct: expressed as a truncated version (192-1024) in fusion after a glutathione S-transferase tag; purchased SignalChem E12-11G
T1 sequence (Q9P2K8 192-1024): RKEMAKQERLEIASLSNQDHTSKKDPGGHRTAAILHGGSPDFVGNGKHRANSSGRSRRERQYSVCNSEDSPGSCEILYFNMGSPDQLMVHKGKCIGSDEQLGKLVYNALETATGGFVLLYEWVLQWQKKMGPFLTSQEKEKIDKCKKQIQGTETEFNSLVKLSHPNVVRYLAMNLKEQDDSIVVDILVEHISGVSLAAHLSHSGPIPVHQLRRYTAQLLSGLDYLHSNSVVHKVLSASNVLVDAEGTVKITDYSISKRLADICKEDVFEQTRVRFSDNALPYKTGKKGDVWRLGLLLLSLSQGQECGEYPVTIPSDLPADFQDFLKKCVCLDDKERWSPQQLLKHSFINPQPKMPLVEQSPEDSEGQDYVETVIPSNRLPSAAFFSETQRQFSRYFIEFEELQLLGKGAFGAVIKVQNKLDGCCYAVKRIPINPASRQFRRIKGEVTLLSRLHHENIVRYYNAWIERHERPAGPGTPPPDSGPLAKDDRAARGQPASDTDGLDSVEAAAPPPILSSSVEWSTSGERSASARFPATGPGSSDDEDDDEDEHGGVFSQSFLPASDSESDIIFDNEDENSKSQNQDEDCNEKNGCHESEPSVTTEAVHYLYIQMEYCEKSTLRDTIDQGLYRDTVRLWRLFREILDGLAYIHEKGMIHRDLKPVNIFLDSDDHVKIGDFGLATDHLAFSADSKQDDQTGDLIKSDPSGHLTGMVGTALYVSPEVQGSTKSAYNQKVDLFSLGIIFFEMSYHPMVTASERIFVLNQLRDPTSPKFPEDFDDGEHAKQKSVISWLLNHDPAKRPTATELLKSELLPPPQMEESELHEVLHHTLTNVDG
Source text: Enzymes. GCN2 was purchased from SignalChem (EIF2AK4, cat. #E12-11G). This human recombinant protein was expressed as a truncated version (192-1024) in fusion after a glutathione S-transferase tag (approximate molecular weight of 132 kDa). Recombinant full-length IN was expressed in E. coli BL21 pLys (IPTG induction) and purified on a nickel chelating column, as described. Integrity and purity were checked by direct Coomassie coloration of elution fractions on SDS-PAGE before dialysis to remove imidazole. Protein concentration was determined using a NanoDrop 2000 with the following parameters: molecular weight: 34 kDa, extinction coefficient ϵ = 50,460 mol^−1cm^−1L.
In vitro phosphorylation assay. Phosphorylation of IN (700 nM) was carried out using 25 nM of GCN2 in a reaction buffer containing 10 mM Tris-HCl pH 7.5, 50 mM NaCl, 15 mM MgCl2, 7.5 mM MnCl2, 10 mM DTT, 0.005% Nonidet P-40, 100 µM ATP, 50 µCi/µL of [γ-^32P]-ATP (3000 Ci/mmole, Perkin Elmer). Reactions (20 µL) were stopped after a 60 min incubation at 30 °C by adding 10 µL of loading buffer [80 mM Tris-HCl pH 6.8, 100 mM DTT, 10% glycerol, 1% sodium dodecyl sulfate (SDS) and 0.05% bromophenol blue]. Samples were then loaded onto a 10% denaturating SDS-PAGE. After protein separation (120 V for 120 min) the gel was stained using Coomassie Brilliant Blue R-250. Autoradiography was performed using an imaging plate (Fujifilm, Tokyo, Japan) and images were obtained with a FLA-5000 Imaging System (Fujifilm).

[2] = molecular target: T1, GCN2; test: as above; settings: without IN, read-out: GCN2 auto-phosphorylation signal, % of the DMSO control
[3] = molecular target: T2, HIV-1 IN (Human immunodeficiency virus type 1 group M subtype B, UniProt P04585); test: Integrase reaction, strand transfer (ST), gel-based; settings: serial dilutions from 100 µM to 45.7 nM
T2 construct: Recombinant full-length IN was expressed in E. coli BL21 pLys; 6xHis; made in house; host or cells: E. coli BL21 pLys
Method: Oligonucleotides. Oligonucleotides were purchased from Integrated DNA Technologies, Inc. (Leuven, Belgium), purified on polyacrylamide gel through electro-elution and dissolve in water. 19T ([…]) and 21B ([…]) correspond to the cleaved and non-cleaved strands specifically recognized by HIV-1 IN. Radiolabeling of 19T at the 5′-end was performed with [γ-^32P] ATP (Perkin-Elmer, Villebon-sur-Yvette, France) using T4 polynucleotide kinase (Promega, Charbonnières-les-Bains, France), according to the manufacturers’ instructions. Unincorporated isotopes were removed using illustra microspin G-25 Columns (Cytiva life sciences, Amersham, Little Chalfont, United Kingdom). DNA duplexes were annealed using an equimolar ratio of the complementary strand 21B, heating to 95 °C, and slow cooling to room temperature.
Integrase reactions. IN reactions were carried out by adding molecules or an equivalent volume of 100% DMSO (dimethyl sulfoxide, used as the drug solvent) to a mixture of 20 nM duplex DNA (19T/21B) and 400 nM IN in 50 mM MOPS pH 7.2, 7.5 mM MgCl2, and 14 mM 2-mercaptoethanol. Reactions were performed at 37 °C for 1 h and quenched by addition of an equal volume (10 µL) of loading buffer [formamide containing 1% SDS (sodium dodecyl sulfate), 0.25% bromophenol blue, and xylene cyanol]. Reaction products were separated in 16% polyacrylamide denaturing sequencing gels. Dried gels were visualized using a FLA-5000 imaging system (Fujifilm). Densitometric analyses were performed using the ImageQuant 5.1 software (GE Healthcare, Chicago, IL, USA) and data analyzed using Prism 6.05 software (GraphPad, San Diego, CA, USA).

O=C1c2c(O)ccc(O)c2C(=O)c2c(NCCNCCO)ccc(NCCNCCO)c21 [NSC279836, Mitoxantrone]
remaining activity at 100 µM ([1]; 100 µM, read-out: GCN2 auto-phosphorylation signal, % of the DMSO control): 171% | effect on GCN2 auto-phosphorylation in dose-response ([1]; serial dilutions from 300 µM to 137 nM): reproducible increase | remaining activity at 100 µM [2]: 145% | concentrations giving full inhibition of ST activity ([3]; only IN present): above 11 µM | effect on IN strand transfer activity ([3]; only IN present): active | apparent IC50, ST activity ([3]; in words): low-micromolar range

Reference: article PMC8434491, “Targeting the Integrated Stress Response Kinase GCN2 to Modulate Retroviral Integration” (Molecules, 2021)
